Reference: ChEMBL document CHEMBL1201862, “PubChem BioAssay data set” (2004)
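All cell lines were grown in 96-well plates and treated with compound for 48 hours. GI50 is the concentration that inhibits growth by half.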 Activity calls are given as the source filed them. No stated cut-off is given here; in the data, active = GI50 up to about 1.1 µM and inactive = higher.

What was measured:
Assay in all cases: growth of human tumour cells (NCI), 48 h
UACC-257 = tested on: UACC-257
KM12 = tested on: KM12
SNB-75 = tested on: SNB-75
K562 = tested on: K562
OVCAR-8 = tested on: OVCAR-8
Hs-578T = tested on: Hs-578T
SN12C = tested on: SN12C
RXF 393 = tested on: RXF 393
CCRF-CEM = tested on: CCRF-CEM
SF-268 = tested on: SF-268
BT-549 = tested on: BT-549
M14 = tested on: M14
PC-3 = tested on: PC-3
SF-539 = tested on: SF-539
RPMI-8226 = tested on: RPMI-8226
SK-OV-3 = tested on: SK-OV-3
786-0 = tested on: 786-0
SF-295 = tested on: SF-295
HCT-116 = tested on: HCT-116
SW-620 = tested on: SW-620
EKVX = tested on: EKVX
NCI/ADR-RES = tested on: NCI/ADR-RES
DU-145 = tested on: DU-145
UACC-62 = tested on: UACC-62
SK-MEL-5 = tested on: SK-MEL-5
HL-60 = tested on: HL-60
HOP-62 = tested on: HOP-62
SNB-19 = tested on: SNB-19
OVCAR-4 = tested on: OVCAR-4
TK-10 = tested on: TK-10
A549 = tested on: A549
SK-MEL-2 = tested on: SK-MEL-2
IGROV-1 = tested on: IGROV-1
MDA-MB-435 = tested on: MDA-MB-435
Malme-3M = tested on: Malme-3M
T47D = tested on: T47D
LOX IMVI = tested on: LOX IMVI
MCF7 = tested on: MCF7
COLO 205 = tested on: COLO 205
A498 = tested on: A498
U-251 = tested on: U-251
HOP-92 = tested on: HOP-92
MDA-MB-231 = tested on: MDA-MB-231
ACHN = tested on: ACHN
MOLT-4 = tested on: MOLT-4
NCI-H23 = tested on: NCI-H23
CAKI-1 = tested on: CAKI-1
SK-MEL-28 = tested on: SK-MEL-28
UO-31 = tested on: UO-31
OVCAR-3 = tested on: OVCAR-3
HT-29 = tested on: HT-29
NCI-H522 = tested on: NCI-H522
HCT-15 = tested on: HCT-15
NCI-H460 = tested on: NCI-H460
MDA-N = tested on: MDA-N
OVCAR-5 = tested on: OVCAR-5
SR = tested on: SR
HCC 2998 = tested on: HCC 2998
NCI-H226 = tested on: NCI-H226

## COc1ccc2c(c1)C(N)=C(Cc1ccncc1)C2=O
UACC-257
  GI50: > 100 µM (inactive)
KM12
  GI50: > 100 µM (inactive)
SNB-75
  GI50: 28.4 µM (inactive)
K562
  GI50: > 100 µM (inactive)
OVCAR-8
  GI50: > 100 µM (inactive)
Hs-578T
  GI50: > 100 µM (inactive)
SN12C
  GI50: 63 µM (inactive)
RXF 393
  GI50: > 100 µM (inactive)
CCRF-CEM
  GI50: 75.2 µM (inactive)
SF-268
  GI50: > 100 µM (inactive)
BT-549
  GI50: > 100 µM (inactive)
M14
  GI50: > 100 µM (inactive)
PC-3
  GI50: 91.8 µM (inactive)
SF-539
  GI50: > 100 µM (inactive)
RPMI-8226
  GI50: > 100 µM (inactive)
SK-OV-3
  GI50: > 100 µM (inactive)
786-0
  GI50: > 100 µM (inactive)
SF-295
  GI50: > 100 µM (inactive)
HCT-116
  GI50: > 100 µM (inactive)
SW-620
  GI50: > 100 µM (inactive)
EKVX
  GI50: 53.5 µM (inactive)
NCI/ADR-RES
  GI50: > 100 µM (inactive)
DU-145
  GI50: > 100 µM (inactive)
UACC-62
  GI50: 81.3 µM (inactive)
SK-MEL-5
  GI50: > 100 µM (inactive)
HL-60
  GI50: 49.4 µM (inactive)
HOP-62
  GI50: > 100 µM (inactive)
SNB-19
  GI50: > 100 µM (inactive)
OVCAR-4
  GI50: 98.4 µM (inactive)
TK-10
  GI50: > 100 µM (inactive)
A549
  GI50: > 100 µM (inactive)
SK-MEL-2
  GI50: > 100 µM (inactive)
IGROV-1
  GI50: 56.9 µM (inactive)
MDA-MB-435
  GI50: > 100 µM (inactive)
Malme-3M
  GI50: > 100 µM (inactive)
T47D
  GI50: 55.2 µM (inactive)
LOX IMVI
  GI50: > 100 µM (inactive)
MCF7
  GI50: 82.4 µM (inactive)
COLO 205
  GI50: > 100 µM (inactive)
A498
  GI50: > 100 µM (inactive)
U-251
  GI50: > 100 µM (inactive)
HOP-92
  GI50: 31.4 µM (inactive)
MDA-MB-231
  GI50: > 100 µM (inactive)
ACHN
  GI50: > 100 µM (inactive)
MOLT-4
  GI50: 63.1 µM (inactive)
NCI-H23
  GI50: > 100 µM (inactive)
CAKI-1
  GI50: > 100 µM (inactive)
SK-MEL-28
  GI50: > 100 µM (inactive)
UO-31
  GI50: 46 µM (inactive)
OVCAR-3
  GI50: > 100 µM (inactive)
HT-29
  GI50: > 100 µM (inactive)
NCI-H522
  GI50: 89.7 µM (inactive)
HCT-15
  GI50: > 100 µM
NCI-H460
  GI50: > 100 µM (inactive)
MDA-N
  GI50: > 100 µM (inactive)

## O=S(=O)(O)c1ccc(/N=N\c2c(O)ccc3cc(Br)ccc23)cc1
UACC-257
  GI50: > 100 µM (inactive)
KM12
  GI50: > 100 µM (inactive)
SNB-75
  GI50: > 100 µM (inactive)
K562
  GI50: > 10 µM (inactive)
OVCAR-8
  GI50: > 100 µM (inactive)
Hs-578T
  GI50: > 100 µM (inactive)
SN12C
  GI50: > 100 µM (inactive)
RXF 393
  GI50: > 100 µM (inactive)
CCRF-CEM
  GI50: > 100 µM (inactive)
SF-268
  GI50: > 100 µM (inactive)
BT-549
  GI50: > 100 µM (inactive)
OVCAR-5
  GI50: > 100 µM (inactive)
M14
  GI50: > 100 µM (inactive)
PC-3
  GI50: > 100 µM (inactive)
RPMI-8226
  GI50: > 100 µM (inactive)
SK-OV-3
  GI50: > 100 µM (inactive)
786-0
  GI50: > 100 µM (inactive)
SF-295
  GI50: > 100 µM (inactive)
HCT-116
  GI50: > 100 µM (inactive)
SW-620
  GI50: > 100 µM (inactive)
EKVX
  GI50: > 100 µM (inactive)
NCI/ADR-RES
  GI50: > 100 µM (inactive)
DU-145
  GI50: > 100 µM (inactive)
UACC-62
  GI50: > 100 µM (inactive)
SK-MEL-5
  GI50: > 100 µM (inactive)
HOP-62
  GI50: > 100 µM (inactive)
SNB-19
  GI50: > 100 µM (inactive)
OVCAR-4
  GI50: > 100 µM (inactive)
TK-10
  GI50: > 100 µM (inactive)
SR
  GI50: > 100 µM (inactive)
A549
  GI50: > 100 µM (inactive)
SK-MEL-2
  GI50: > 100 µM (inactive)
IGROV-1
  GI50: > 100 µM (inactive)
MDA-MB-435
  GI50: > 100 µM (inactive)
Malme-3M
  GI50: > 100 µM (inactive)
T47D
  GI50: > 100 µM (inactive)
LOX IMVI
  GI50: > 100 µM (inactive)
COLO 205
  GI50: > 100 µM (inactive)
A498
  GI50: > 100 µM (inactive)
U-251
  GI50: > 100 µM (inactive)
HOP-92
  GI50: > 100 µM (inactive)
MDA-MB-231
  GI50: > 100 µM (inactive)
ACHN
  GI50: > 100 µM (inactive)
MOLT-4
  GI50: > 100 µM (inactive)
NCI-H23
  GI50: > 100 µM (inactive)
CAKI-1
  GI50: > 100 µM (inactive)
SK-MEL-28
  GI50: > 100 µM (inactive)
UO-31
  GI50: > 100 µM (inactive)
OVCAR-3
  GI50: > 100 µM (inactive)
HT-29
  GI50: > 100 µM (inactive)
NCI-H522
  GI50: > 100 µM (inactive)
HCT-15
  GI50: > 100 µM
MDA-N
  GI50: > 100 µM (inactive)

## O=c1ccn(C2OC(CN(O)CCC3C(CO)OC(n4ccc(=O)[nH]c4=O)C3O)C(O)C2O)c(=O)[nH]1 (stereo not drawn)
UACC-257
  GI50: > 100 µM (inactive)
KM12
  GI50: > 100 µM (inactive)
SNB-75
  GI50: > 100 µM (inactive)
K562
  GI50: > 100 µM (inactive)
OVCAR-8
  GI50: > 100 µM (inactive)
Hs-578T
  GI50: > 100 µM (inactive)
SN12C
  GI50: > 100 µM (inactive)
RXF 393
  GI50: > 100 µM (inactive)
CCRF-CEM
  GI50: > 100 µM (inactive)
SF-268
  GI50: > 100 µM (inactive)
BT-549
  GI50: > 100 µM (inactive)
OVCAR-5
  GI50: > 100 µM (inactive)
M14
  GI50: > 100 µM (inactive)
PC-3
  GI50: > 100 µM (inactive)
RPMI-8226
  GI50: > 100 µM (inactive)
SK-OV-3
  GI50: > 100 µM (inactive)
786-0
  GI50: > 100 µM (inactive)
SF-295
  GI50: > 100 µM (inactive)
HCT-116
  GI50: > 100 µM (inactive)
SW-620
  GI50: > 100 µM (inactive)
EKVX
  GI50: > 100 µM (inactive)
NCI/ADR-RES
  GI50: > 100 µM (inactive)
DU-145
  GI50: > 100 µM (inactive)
UACC-62
  GI50: > 100 µM (inactive)
SK-MEL-5
  GI50: > 100 µM (inactive)
HL-60
  GI50: > 100 µM (inactive)
HOP-62
  GI50: > 100 µM (inactive)
HCC 2998
  GI50: > 100 µM (inactive)
SNB-19
  GI50: > 100 µM (inactive)
OVCAR-4
  GI50: > 100 µM (inactive)
TK-10
  GI50: > 100 µM (inactive)
A549
  GI50: > 100 µM (inactive)
SK-MEL-2
  GI50: > 100 µM (inactive)
IGROV-1
  GI50: > 100 µM (inactive)
MDA-MB-435
  GI50: > 100 µM (inactive)
Malme-3M
  GI50: > 100 µM (inactive)
T47D
  GI50: > 100 µM (inactive)
MCF7
  GI50: > 100 µM (inactive)
NCI-H226
  GI50: > 100 µM (inactive)
COLO 205
  GI50: > 100 µM (inactive)
A498
  GI50: > 100 µM (inactive)
U-251
  GI50: > 100 µM (inactive)
HOP-92
  GI50: > 100 µM (inactive)
MDA-MB-231
  GI50: > 100 µM (inactive)
ACHN
  GI50: > 100 µM (inactive)
MOLT-4
  GI50: > 100 µM (inactive)
NCI-H23
  GI50: > 100 µM (inactive)
CAKI-1
  GI50: > 100 µM (inactive)
SK-MEL-28
  GI50: > 100 µM (inactive)
UO-31
  GI50: > 100 µM (inactive)
OVCAR-3
  GI50: > 100 µM (inactive)
HT-29
  GI50: > 100 µM (inactive)
HCT-15
  GI50: > 100 µM
NCI-H460
  GI50: > 100 µM (inactive)
MDA-N
  GI50: > 100 µM (inactive)
